Test results published in patent US8314079B2, “Hyaluronic acid oligosaccharide fractions and drugs containing the same” (Seikagaku Corporation, priority 2000, dated 2012).

System: HSF1
Test: Phosphorylation (activation) of HSF1 in heat-shocked K562 cells, band shift 66 kDa to 81 kDa by SDS-PAGE/Western blotting
Assay type: cell-based, human
Excerpt: It is known that HSF1 (heat shock factor 1) protein is a transcription factor of Hsp70 (J. Biol. Chem., 271, pp. 3355-3358, 1996). Moreover, the HSF1 protein can be activated by phosphorylation, and this phosphorylation can be detected based on band shift in SDS-polyacrylamide gel electrophoresis (SDS-PAGE) (apparent molecular weight shifts from about 66 kDa to about 81 kDa). By utilizing this fact, the HA oligosaccharides of various sizes were allowed to act on the K562 cells given with stress, and the aforementioned band shift was detected to investigate the degree of the phosphorylation (activation) of HSF1.
HA4, ΔHA4, HA6, HA8, HA2-18 and HA 8-14 were each added to a medium containing the aforementioned cells at a concentration of 1, 10 or 100 ng/mL. Then, the cells were immediately transferred into an environment at 42° C. to be given with heat shock and incubated for 20 minutes. After the incubation, the cells were collected by centrifugation, and SDS-PAGE (gel concentration: 10%) was performed. Thereafter, Western blotting was performed by using anti-HSF1 monoclonal antibodies (produced by Stressgene) as primary antibodies and goat anti-mouse IgG monoclonal antibodies (produced by Jackson Lab) as secondary antibodies to detect the shift of a band of 66 kDa (HSF1 not phosphorylated) to a band of 81 kDa (phosphorylated HSF1).
In order to confirm the reproducibility of Experiment 1, the band shift was detected in the same manner as in Experiment 1 by using HA4, ΔHA4, HA8 and HA84 except that HA was added in a single kind of amount of 100 ng/mL, and the heat shock was given at 43° C. In FIG. 41, the first lane from the left indicates the result obtained with an extract of cells incubated at 37° C. (no addition of HA oligosaccharide), the second lane indicates the result obtained with an extract of cells subjected to 43° C. (no addition of HA oligosaccharide), and the first lane from the right indicates the result of detection of HSF1 (derived from bacteria) as a standard.
In order to investigate whether the action observed in Experiment 2 was specific to the saccharide chain basic structure of HA oligosaccharides, the following comparative experiment was performed by using chondroitin oligosaccharides. […] Therefore, it can be said that Ch is a substance extremely structurally analogous to HA, and the same shall also apply to the oligosaccharides thereof. • Saturated Ch tetrasaccharide (Ch4) • GlcAβ1-3GalNAcβ1-4GlcAβ1-3GalNAc • Saturated Ch hexasaccharide (Ch6) • GlcAβ1-3GalNAcβ1-4GlcAβ1-3GalNAcβ1-4GlcAβ1-3GalNAc • Saturated Ch octasaccharide (Ch8) • GlcAβ1-3GalNAcβ1-4GlcAβ1-3GalNAcβ1-4GlcAβ1-3GalNAcβ1-4GlcAβ1-3GalNAc
The same experiment as Experiment 2 was performed by using these oligosaccharides.

[1] = Experiment 2 (and comparative Experiment 3), 100 ng/mL, heat shock 43° C.

SMILES: CC(=O)N[C@H]1[C@H](O[C@H]2[C@H](O)[C@@H](O)[C@H](O[C@H]3[C@H](O)[C@@H](CO)OC(O)[C@@H]3NC(C)=O)O[C@@H]2C(=O)O)O[C@H](CO)[C@@H](O)[C@@H]1O[C@@H]1O[C@H](C(=O)O)[C@@H](O)[C@H](O)[C@H]1O.[Na].[Na] (stereo partly drawn) [HA4, sodium β-D-glucopyranosyluronate-(1→3)-2-acetamido-2-deoxy-β-D-glucopyranosyl-(1→4)-(sodium β-D-glucopyranosyluronate)-(1→3)-2-acetamido-2-deoxy-D-glucopyranose]
- shift of a band of 66 kDa (HSF1 not phosphorylated) to a band of 81 kDa (phosphorylated HSF1) (Experiment 1, 1, 10 or 100 ng/mL, heat shock 42° C., 20 minutes): shift to the 81 kDa band was observed depending on the amount of the added HA oligosaccharide
- amount of HSF1 per se [1]: amounts of both HSF1 of 66 kDa and 81 kDa per se were also increased
- band shift of HSF1 (66 kDa to 81 kDa) [1]: band shift was observed
